Source: ChEMBL document CHEMBL5247585, “Design, synthesis, and evaluation of 4(1H)-quinolinone and urea derivatives as KRASG12C inhibitors with potent antitumor activity against KRAS-mutant non-small cell lung cancer” (Eur J Med Chem, 2022)
Active and inactive are the calls of the source. The calls are words filed in the database; no cut-off is given here.

How the values were obtained:
A549 = assay: Antiproliferative activity against human A549 cells harboring KRAS G12S mutant assessed as reduction in cell viability incubated for 72 hrs by MTT assay; type: functional, cell-based; details: A549, 72 h
NCI-H23 = assay: Antiproliferative activity against human NCI-H23 cells harboring KRAS G12C mutant assessed as reduction in cell viability incubated for 72 hrs by MTT assay; type: functional, cell-based; details: NCI-H23, 72 h
NCI-H2228 = assay: Antiproliferative activity against human NCI-H2228 cells harboring wild type KRAS assessed as reduction in cell viability incubated for 72 hrs by MTT assay; type: functional, cell-based; details: NCI-H2228, 72 h
NCI-H358 = assay: Antiproliferative activity against human NCI-H358 cells harboring KRAS G12C mutant assessed as reduction in cell viability incubated for 72 hrs by MTT assay; type: functional, cell-based; details: NCI-H358, 72 h
[1] = Selectivity index, ratio of IC50 for human A549 cells harboring KRAS G12S mutant to IC50 for human NCI-H358 cells harboring KRAS G12C mutant; type: functional
[2] = Selectivity index, ratio of IC50 for human A549 cells harboring KRAS G12S mutant to IC50 for human NCI-H23 cells harboring KRAS G12C mutant; type: functional
[3] = Selectivity index, ratio of IC50 for human NCI-H2228 cells harboring wild type KRAS to IC50 for human NCI-H358 cells harboring KRAS G12C mutant; type: functional
[4] = Selectivity index, ratio of IC50 for human NCI-H2228 cells harboring wild type KRAS to IC50 for human NCI-H23 cells harboring KRAS G12C mutant; type: functional
[5] = Cytotoxicity against human MRC5 cells assessed as reduction in cell viability incubated for 72 hrs by MTT assay; type: toxicity, cell-based
NCI-H441 = assay: Antiproliferative activity against human NCI-H441 cells harboring KRAS G12V mutant assessed as reduction in cell viability incubated for 72 hrs by MTT assay; type: functional, cell-based; details: NCI-H441, 72 h
SK-LU-1 = assay: Antiproliferative activity against human SK-LU-1 cells harboring KRAS G12D mutant assessed as reduction in cell viability incubated for 72 hrs by MTT assay; type: functional, cell-based; details: SK-LU-1, 72 h
[6] = tested on: GTPase KRas (Homo sapiens), P01116 [G12C]; assay: (§1) Inhibition of 6His tagged Mant-GDP loaded human KRAS G12C mutant (1 to 169 residues) expressed in Escherichia coli BL21 (DE3) cells assessed as inhibition of SOS1-mediated nucleotide exchange at 10 uM preincubated with compound for 1 hrs followed by addition of GTP and SOS1 protein and measured every 90 sec for 2 hrs by fluorescence based assay; details: time 3.0 hrs
[7] = tested on: GTPase KRas (Homo sapiens), P01116 [G12C]; assay: as §1, with “[…]” for “SOS1-mediated”, “EDTA” for “SOS1 protein”; details: time 3.0 hrs
[8] = tested on: GTPase KRas (Homo sapiens), P01116 [G12C]; assay: Covalent binding affinity to 6His tagged GDP bound human KRAS G12C mutant (1 to 169 residues) expressed in Escherichia coli BL21 (DE3) cells at 200 uM incubated for 24 hrs by LC-MS /MS analysis
[9] = biological target: GTPase KRas (Homo sapiens) (UniProt P01116); assay: Covalent binding affinity to 6his tagged GDP bound human wildtype KRAS expressed in Escherichia coli BL21 (DE3) cells at 200 uM incubated for 24 hrs by LC-MS/MS analysis

## C=CC(=O)N1CC[C@@H](NC(=O)c2cc(=O)c3cc(Cl)c(I)cc3[nH]2)C1
A549
  IC50: 20.3 µM
NCI-H23
  IC50: 11.6 µM
NCI-H2228
  IC50: 24.6 µM
NCI-H358
  IC50: 10 µM

## C=CC(=O)N1CC[C@H](NC(=O)Nc2ccc(Cl)c(C(F)(F)F)c2)C1
A549
  IC50: > 100 µM
NCI-H23
  IC50: 28.9 µM
NCI-H2228
  IC50: 38.2 µM
NCI-H358
  IC50: 22.8 µM

## C=CS(=O)(=O)N1CCC(NC(=O)Nc2ccc(Cl)cc2)CC1
A549
  IC50: > 100 µM
NCI-H23
  IC50: 18.9 µM
NCI-H2228
  IC50: 27.5 µM
NCI-H358
  IC50: 31.9 µM

## COc1cccc(F)c1-c1cc(NC(=O)NC2CCN(C(=O)CCl)CC2)ccc1Cl
A549
  IC50: 66.9 µM
NCI-H23
  IC50: 31.1 µM
NCI-H2228
  IC50: > 100 µM
NCI-H358
  IC50: 27.8 µM

## O=C(Nc1ccc(Cl)c(Cl)c1)NC1CCN(C(=O)CCl)CC1
A549
  IC50: 7.4 µM
NCI-H23
  IC50: 4.8 µM
NCI-H2228
  IC50: 9.2 µM
NCI-H358
  IC50: 5.5 µM

## O=C(Nc1ccc(Cl)c(C(F)(F)F)c1)N[C@H]1CCN(C(=O)CCl)C1
A549
  IC50: 11.3 µM
NCI-H23
  IC50: 1.5 µM
[1]
  Ratio IC50: 3
[2]
  Ratio IC50: 3
NCI-H2228
  IC50: 7.3 µM
NCI-H358
  IC50: 2.4 µM
[3]
  Ratio IC50: 3
[4]
  Ratio IC50: 3

## O=C(CCl)NC1CCN(C(=O)c2cc(=O)c3cc(Cl)c(I)cc3[nH]2)CC1
A549
  IC50: 9.8 µM
NCI-H23
  IC50: 2.7 µM
[1]
  Ratio IC50: 2
[2]
  Ratio IC50: 2
NCI-H2228
  IC50: 8.6 µM
NCI-H358
  IC50: 4.5 µM
[3]
  Ratio IC50: 2
[4]
  Ratio IC50: 2

## C=CS(=O)(=O)NC1CCN(C(=O)CNc2cc(I)c(Cl)cc2OC)CC1
A549
  IC50: 5.2 µM
NCI-H23
  IC50: 3 µM
[5]
  IC50 at 72 h: 10.3 µM
NCI-H441
  IC50: 21.5 µM
SK-LU-1
  IC50: 22.8 µM
NCI-H2228
  IC50: 7.2 µM
NCI-H358
  IC50: 4.4 µM

## O=C(Nc1ccc(Cl)cc1)NC1CCN(C(=O)CCl)CC1
[6]
  inhibition: Active
[7]
  inhibition: inactive
A549
  IC50: 17.5 µM
NCI-H23
  IC50: 5.1 µM
[1]
  Ratio IC50: 3
[2]
  Ratio IC50: 3
[8]
  Activity: Active
NCI-H2228
  IC50: 14.1 µM
NCI-H358
  IC50: 3.8 µM
[3]
  Ratio IC50: 3
[9]
  Activity: inactive
[4]
  Ratio IC50: 3

## C=CC(=O)NC1CCN(C(=O)c2cc(=O)c3ccccc3[nH]2)CC1
A549
  IC50: > 100 µM
NCI-H23
  IC50: > 100 µM
NCI-H2228
  IC50: > 100 µM
NCI-H358
  IC50: 44.8 µM

## C=CC(=O)N1CC[C@@H](NC(=O)Nc2ccc(Cl)c(C(F)(F)F)c2)C1
A549
  IC50: > 100 µM
NCI-H23
  IC50: 29.7 µM
NCI-H2228
  IC50: 58 µM
NCI-H358
  IC50: 38.1 µM

## O=C(NC1CCN(C(=O)CCl)C1)c1cc(=O)c2cc(Cl)c(I)cc2[nH]1 (stereo not drawn)
A549
  IC50: 10.2 µM
NCI-H23
  IC50: 3.8 µM
NCI-H2228
  IC50: 8.2 µM
NCI-H358
  IC50: 5.4 µM

## C=CC(=O)N1CC[C@H](NC(=O)Nc2ccc(Cl)cc2)C1
A549
  IC50: > 100 µM
NCI-H23
  IC50: > 100 µM
NCI-H2228
  IC50: > 100 µM
NCI-H358
  IC50: > 100 µM

## C=CS(=O)(=O)N1CCC(NC(=O)Nc2ccc(Cl)c(C(F)(F)F)c2)CC1
A549
  IC50: 3.3 µM
NCI-H23
  IC50: 2.6 µM
NCI-H2228
  IC50: 6.4 µM
NCI-H358
  IC50: 4.2 µM

## O=C(Nc1ccc(Cl)c(C(F)(F)F)c1)NC1CCN(C(=O)CCl)CC1
[6]
  inhibition: Active
[7]
  inhibition: inactive
A549
  IC50: 8 µM
NCI-H23
  IC50: 2.3 µM
[8]
  Activity: Active
NCI-H2228
  IC50: 10.6 µM
NCI-H358
  IC50: 3.1 µM
[9]
  Activity: inactive
